Data set [1] relates to Salmonella enterica serovar typhimurium (ATCC 14028). Put plainly: Bacterial cell viability, lux luminescence and OD600, with or without LPS. In kind it is cell-based. To be noted: co-incubation with 2.5 μM Aeromonas salmonicida LPS. The text has this: To evaluate the effect of antimicrobial peptides on the viability of bacteria in a fast and reliable manner we used the lux CDABE operon from Photorhabdus luminescens as a reporter system in gram negative test bacteria and the modified luxABCDE operon in S. aureus (Vesterlund et al. 2004). Bacterial bioluminescence is directly dependent on metabolic activity, since reduction equivalents are needed to drive light emission. Any form of interruption of bacterial cell integrity or metabolism will therefore be detected as a reduction in light emission.
For the assay we used S. aureus (RN4220), E. coli K-12 and Salmonella enterica serovar typhimurium (ATCC 14028) transformed with the respective lux-operon containing plasmids (Vesterlund et al. 2004).
For each experiment a fresh colony was picked from Luria-Bertani plates supplemented with 10 μg/ml of erythromycin in case of S. aureus and with 100 μg/ml of ampicillin in case of E. coli and S. enterica serovar Typhimurium. Each colony was suspended in 5 ml of Müller-Hinton medium with appropriate antibiotics. The culture was incubated over night at 37° C. in a shaking incubator. The next morning 0.5 ml of this culture was transferred to 30 ml fresh MH medium in an Erlenmeyer-flask supplemented with the respective antibiotic. The flask was incubated (200 rpm shaking; 37° C.) until an OD600 of 0.5-0.8 was reached. The culture was then diluted to an OD600 of about 0.02-0.03 before transfer to the 96 well opaque plates with optical bottom (Packard ViewPlate) used for the assay.
The synthesized peptides were dissolved in water and aliquots frozen at −18° C. until use. Twofold dilutions of test peptides (final concentrations ranging from 0.31 to 80 μM) were directly prepared in 96 well microtiter plates in a volume of 10 μl in water. 90 μl is of indicator bacteria in MH medium were added directly to the prepared and pre-warmed (30 minutes at 37° C.) plate before starting the measurement in a Victor multiplate reader (Perkin Elmer) at 37° C. Both OD600 and luminescence in counts per second (cps) were followed over 5 hours in measuring intervals of 5 minutes. The plates where shaken before each measurement (20 sec.; 5 mm orbital shaking; 10 sec waiting). The growth curves and light emission curves were drawn and evaluated to determine the MIC for each indicator strain. The MIC was defined as the concentration of test compound causing more than 50% reduction in bioluminescence (cps) or optical density (OD600) after 5 hours, compared to the growth control. Cecropin P1 was used as positive control. The results (table 14a-b) confirm the results obtained in example 2, showing a pronounced antibacterial effect of the longest peptide fragments. […] The partial peptides P17 HC (1-20), both bromated and unbromated, inhibit growth only in higher concentrations.
A second plate with an otherwise similar setup (as described for the luminescence assay in example 3) was prepared, but with addition of Aeromonas salmonicida LPS to the peptide dilutions before pre-warming. The LPS end concentration in each well was approximately 2.5 μM.

A further data set deals with THP-1 cells. Put plainly: in vitro. It is filed as cell-based, human. As for the experimental part: The toxicity of test peptides on THP-1 cells was measured using the MIT method (Mosmann, 1983), with minor modifications. To induce monocyte-macrophage differentiation, THP-1 cells were cultured in 96-well culture plates (10^6 cells/well) in a volume of 100 μl RPMI 1640 medium, containing 50 ng/ml PMA (which is known to induce the maturation of monocytes) and incubated in a humidified atmosphere of 5% CO2 at 37° C. for 48 hours. The medium was then removed and the cells were washed with PBS, added 100 μl fresh medium (without PMA) and incubated for another 24 hours. Medium was removed and the adherent macrophages were treated with 100 μl of peptide solution (concentrations ranging from 0 to 800 μg/ml), diluted in RPMI-1640 assay medium without FBS. After incubation at 37° C. for 1 hour, the cells were added LPS (0.1 μg/ml) and further incubated for 4 hours. Cells treated with Triton X-100 (1%) were used as positive control (100% killing) whereas cells plus medium only were used as negative control. Following the incubation period, 10 μl MTT (5 mg/ml) dissolved in phosphate-buffered saline (PBS) was added to each well, and the plate was further incubated for 2 hours. A volume of 70 μl of the supernatant was then removed and 100 μl acid alcohol (0.04 M HCl in isopropanol) added to each well to dissolve the dark blue crystals. The plate was placed on a shaker for 1 hour at room temperature and read spectrophotometrically at 595 nm in a microtiter plate reader (DTX880 Multimode Detector, Beckman Coulter). Cell survival (%) was then determined from the ΔA595 nm relative to negative control (100% living cells) and expressed as 50% inhibitory concentration (IC50). The IC50 values were estimated from the dose-response curves, which were obtained by averaging at least 3 parallel experiments.

In data set [2] the test system is C. glutamicum (ATCC 13032). It is filed as cell-based, Corynebacterium glutamicum. In short, it runs like this:
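Peptide fractions were incubated with actively growing bacteria in Mueller Hinton medium at a starting concentration of 3×10^4 cells per ml. Growth was monitored continuously in a Bioscreen C reader; polymyxin B served as reference.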

These results are taken from patent publication US20100093642A1, “NOVEL POLYPEPTIDES” (priority 2006, published 2010).

Residues, ends and D or L forms follow the SMILES beside them. No end group written: not given here.

Turning to `CC[C@H](C)[C@H](NC(=O)CNC(=O)[C@H](CO)NC(=O)[C@H](CCCCN)NC(=O)[C@@H](NC(=O)[C@H](C)NC(=O)[C@H](Cc1c[nH]cn1)NC(=O)[C@H](CO)NC(=O)[C@@H](NC(=O)[C@H](CCCCN)NC(=O)[C@H](Cc1c[nH]cn1)NC(=O)[C@H](Cc1ccccc1)NC(=O)[C@@H](NC(=O)[C@H](CCCCN)NC(=O)[C@H](CCCCN)NC(=O)[C@H](Cc1ccccc1)NC(=O)C(Cc1c[nH]c2ccc(Br)cc12)NC(=O)CN)[C@@H](C)O)C(C)C)C(C)C)C(=O)N[C@@H](Cc1c[nH]cn1)C(=O)N[C@@H](C)C(=O)O` (stereo partly shown) [P17 HC-Br (1-20)] (HELM PEPTIDE1{G.[O=C(C(Cc1c[nH]c2ccc(Br)cc12)N[*:1])[*:2]].F.K.K.T.F.H.K.V.S.H.A.V.K.S.G.I.H.A}$$$$V2.0; N-terminus and C-terminus assumed), in data set [1] (OD600, 5 hours), the “MIC, more than 50% reduction in optical density, S. enterica, P + LPS” value amounted to 10 µM. Further, in data set [1] (luminescence (cps), 5 hours), the “MIC, more than 50% reduction in luminescence, S. enterica, P + LPS” value is 10 µM.
With GWFKKTFHKVSHAVKSGIHA [P17 HC (1-20)], the “Toxicity to THP-1 cells TC50” value with THP-1 cells is reported as “—^b”. Besides, the “Minimal inhibitory concentration, C. glutamicum” value in data set [2] worked out at 1.56 µM.
